# Activity calls are given as the source filed them. The rule behind the calls is not given here.
# Columns and labels:
# [1] = system: Candida albicans; assay: Inhibition of germ tube formation in Candida albicans SC5314 assessed as yeast to hyphal conversion at 30 to 300 uM after 2 hrs by differential interference contrast microscopic analysis relative to control; assay type: functional; parameters: scale not given: the % may be the effect or the level left
# [2] = system: Candida albicans; assay: Antifungal activity against Candida albicans SC5314 assessed as inhibition of yeast growth at <15 uM after 24 hrs by CLSI broth microdilution method; assay type: functional, organism-based
# [3] = system: Candida albicans; assay: Antifungal activity against Candida albicans SC5314 assessed as inhibition of yeast growth at >30 uM after 24 hrs by CLSI broth microdilution method; assay type: functional, organism-based
# [4] = system: Candida albicans; assay: Inhibition of germ tube formation in Candida albicans SC5314 assessed as reduction in yeast to hyphal conversion at 30 to 300 uM after 4 hrs by differential interference contrast microscopic analysis; assay type: functional, organism-based
# [5] = system: Candida albicans; assay: Inhibition of hypal growth in Candida albicans SC5314 assessed as length of germ tube at 200 uM measured immediately by differential interference contrast microscopic analysis (reference value: 70.3 +/- 12.3 micrometer); assay type: functional
# [6] = system: Candida albicans; assay: Inhibition of hypal growth in Candida albicans SC5314 assessed as length of germ tube at 200 uM after 3 hrs by differential interference contrast microscopic analysis (reference value: 149.9 +/- 22.3 micrometer); assay type: functional
# [7] = system: Candida albicans; assay: Inhibition of hypal growth in Candida albicans SC5314 assessed as length of germ tube at 200 uM after 6 hrs by differential interference contrast microscopic analysis (reference value: 235.2 +/- 40.4 micrometer); assay type: functional
# [8] = system: Candida albicans; assay: Inhibition of hypal growth in Candida albicans SC5314 assessed as length of germ tube at 200 uM after 9 hrs by differential interference contrast microscopic analysis (reference value: 223.9 +/- 24.5 micrometer); assay type: functional
# [9] = system: Candida albicans; assay: Antifungal activity against Candida albicans SC5314 assessed as inhibition of yeast growth at 60 uM after 24 hrs by CLSI broth microdilution method relative to control; assay type: functional; conditions: SC5314, 24 h
# [10] = system: Candida albicans; assay: Inhibition of germ tube formation in Candida albicans SC5314 assessed as reduction in yeast to hyphal conversion at >200 uM after 4 hrs by differential interference contrast microscopic analysis relative to control; assay type: functional
# [11] = system: Candida albicans; assay: Antifungal activity against Candida albicans SC5314 assessed as inhibition of yeast growth at >120 uM after 24 hrs by CLSI broth microdilution method; assay type: functional, organism-based
SMILES,Activity [1] [%],inhibition [2],inhibition [3],inhibition [4],Activity [5] [um],Activity [6] [um],Activity [7] [um],Activity [8] [um],inhibition at 60 µM [9] [%],inhibition (INH) [10] [%],inhibition [11]
CCCCCCCCc1ccc(C(=O)O)s1,>95,,,,,,,,,,
CCCCCCCCOc1ccc(C(=O)O)cc1,>95,,,,,,,,,,
CCCCCCCCC/C=C\C(=O)O,,Active,Active,Active,65.3,73.3,63.5,64.2,,,
O=C(O)c1cn(CCCCCCO)nn1,,Active,,Active,,,,,,,
CCCCCCCCCCn1cc(C(=O)O)nn1,,Active,Active,,71.8,59.1,45,53.3,90,95,
CCCCCCCCn1cc(C(=O)O)nn1,,Active,Active,,73.4,64.4,54.6,74.2,90,95,Active
CCCCCCn1cc(C(=O)O)nn1,,Active,,Active,66.5,142.8,207.8,223.5,,,Active

# From ChEMBL document CHEMBL4251548, “Efficient click chemistry towards fatty acids containing 1,2,3-triazole: Design and synthesis as potential antifungal drugs for Candida albicans” (2017)
